Laboratory results reported in ChEMBL document CHEMBL4706474, “Tetrahydro-2-naphthyl and 2-Indanyl Triazolopyrimidines Targeting Plasmodium falciparum Dihydroorotate Dehydrogenase Display Potent and Selective Antimalarial Activity” (J Med Chem, 2016).
In brackets after ≈: the same amount, converted by molar mass.

Experiments:
[1] = tested on: Plasmodium falciparum; experiment: Antiplasmodial activity against Plasmodium falciparum 3D7 infected in NSG mouse assessed as blood AUC level require to show 90% reduction in parasitemia administered orally on day 3 post-infection QD for 4 days and measured after 24 hrs post dose by LC-MS/MS analysis; assay type: functional, organism-based; settings: time 4.0 day
[2] = Inhibition of N-terminal His6-tagged Plasmodium falciparum DHODH expressed in Escherichia coli BL21 using L-DHO as substrate and CoQ as co-substrate by DCIP dye based spectrophotometric assay
[3] = Intrinsic clearance in human pooled liver microsomes assessed per mg protein at 1 uM by LC-MS analysis; assay type: ADME, Microsome; settings: microsomes, 1 µM
[4] = Intrinsic clearance in rat liver microsomes assessed per mg protein at 1 uM by LC-MS analysis; assay type: ADME, Microsome; settings: microsomes, 1 µM
[5] = Lipophilicity, logD of the compound at pH 7.4; assay type: physicochemical; settings: buffer
[6] = tested on: Plasmodium falciparum; experiment: Antiplasmodial activity against Plasmodium falciparum 3D7 infected in RBC assessed as reduction in parasitemia incubated for 72 hrs by SYBR green dye-based assay; assay type: functional, organism-based
[7] = Intrinsic clearance in mouse liver microsomes at 1 uM by LC-MS analysis; assay type: ADME, Microsome
[8] = Kinetic solubility of compound in phosphate buffer at pH 6.5 measured after 30 mins by HPLC-UV based analysis; assay type: physicochemical; settings: for solubility kinetic at 0.5 h: phosphate buffer, pH 6.5, read-out: Kinetic_solubility
[9] = biological target: Dihydroorotate dehydrogenase (quinone), mitochondrial (Homo sapiens, UniProt Q02127); experiment: Inhibition of N-terminal His6-tagged human DHODH expressed in Escherichia coli BL21 using L-DHO as substrate and CoQ as co-substrate by DCIP dye based spectrophotometric assay
[10] = Inhibition of N-terminal His6-tagged Plasmodium vivax DHODH expressed in Escherichia coli BL21 using L-DHO as substrate and CoQ as co-substrate by DCIP dye based spectrophotometric assay
[11] = tested on: Plasmodium falciparum; experiment: Antiplasmodial activity against Plasmodium falciparum 3D7 infected in po dosed NSG mouse assessed as blood AUC level require to show 90% reduction in parasitemia administered once daily for 4 consecutive days starting from day 3 post-infection and measured 24 hrs post last dose by flow cytometric analysis; assay type: functional, organism-based; settings: time 4.0 day
[12] = tested on: Plasmodium falciparum; experiment: Antiplasmodial activity against Plasmodium falciparum 3D7 infected in po dosed NSG mouse assessed as reduction in parasitemia administered twice daily for 4 consecutive days starting from day 3 post-infection and measured 24 hrs post last dose by flow cytometric analysis; assay type: functional; settings: 3D7, po, 96 h, time 4 day
[13] = Plasmodium falciparum, 3D7, Erythrocyte, 72 h

Chain of Dihydroorotate dehydrogenase (quinone), mitochondrial (Q02127 whole entry): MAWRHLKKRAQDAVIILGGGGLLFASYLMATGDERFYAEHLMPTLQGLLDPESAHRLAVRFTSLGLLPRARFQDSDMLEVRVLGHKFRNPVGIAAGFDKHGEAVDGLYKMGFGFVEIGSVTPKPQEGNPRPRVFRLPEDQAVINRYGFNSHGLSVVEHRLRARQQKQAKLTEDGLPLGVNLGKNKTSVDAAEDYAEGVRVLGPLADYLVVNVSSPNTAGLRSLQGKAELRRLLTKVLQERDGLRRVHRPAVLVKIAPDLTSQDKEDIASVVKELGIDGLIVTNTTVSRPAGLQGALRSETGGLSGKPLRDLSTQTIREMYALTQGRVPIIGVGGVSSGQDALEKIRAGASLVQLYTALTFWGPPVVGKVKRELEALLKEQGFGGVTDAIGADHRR

SMILES | IC50 [2] [nM] | microsomal intrinsic clearance [3] [µL/min] | Intrinsic clearance in rat liver microsomes (uL/min/mg protein) [4] [µL/min] | logD [5] | EC50 [6, 13] [nM] | intrinsic clearance [7] [µL/min] | solubility kinetic at 0.5 h [8] [µg/mL] | IC50 [9] [nM] | IC50 [10] [nM] | EC50 ([6]; rbc) [nM] | other results
Cc1cc(NC2CCc3cc(Cl)ccc3C2)n2nc(C(C)(F)F)nc2n1 (stereo in doubt) |  |  |  |  |  |  |  |  |  |  | AUCED90 [1]: > 23 µM.hr/day
Cc1cc(NC2Cc3ccc(Cl)cc3C2)n2nc(C(C)(F)F)nc2n1 (centres undefined) | 85 | 10 | 54 | 3.5 | 120 | 43 | 6.3 (≈ 17.3 µM) |  |  |  | 
Cc1cc(N[C@@H]2CCc3ccc(Cl)cc3C2)n2nc(C(C)(F)F)nc2n1 | 790 |  |  |  | 2800 |  |  | > 100000 |  |  | 
Cc1cc(NC2CCc3cc(F)c(F)cc3C2)n2nc(C(C)(F)F)nc2n1 (stereo in doubt; 19) | 60 | 11 | 24 |  |  | 59 |  |  | 71 | 22 | 
Cc1cc(NC2CCc3cc(F)ccc3C2)n2nc(C(F)(F)F)nc2n1 (centres undefined) | 77 |  |  |  | 66 |  |  |  | 280 |  | 
Cc1cc(NC2Cc3ccc(Br)cc3C2)n2nc(C(C)(F)F)nc2n1 (centres undefined) | 110 |  |  |  | 590 |  |  |  |  |  | 
Cc1cc(NC2CCc3cc(Cl)ccc3C2)n2nc(C(C)(F)F)nc2n1 (stereo in doubt; 8) | 1340 |  |  |  |  |  |  |  |  | 420 | 
COc1ccc2c(c1)CC(Nc1cc(C)nc3nc(C(C)(F)F)nn13)CC2 (stereo in doubt; 16) | 21 | 18 | 19 | 3.3 |  | 25 | 12.5 (≈ 33.5 µM) |  | 130 | 25 | 
Cc1cc(NC2CCc3cc(F)c(F)cc3C2)n2nc(C(C)(F)F)nc2n1 (stereo in doubt; 18) | 2300 |  |  |  |  |  |  |  |  | > 2500 | 
Cc1cc(NC2CCc3ccccc3C2)n2nc(C(C)(F)F)nc2n1 (centres undefined) | 21 |  |  |  | 2.8 |  |  |  | 35 |  | 
Cc1cc(NC2CCc3cc(F)c(C(F)(F)F)cc3C2)n2nc(C(C)(F)F)nc2n1 (centres undefined) | 89 | < 7 | 13 | 4 | 97 | 17 | 3.1 (≈ 7.22 µM) | > 100000 | 390 |  | 
Cc1cc(NC2Cc3cccc(F)c3C2)n2nc(C(C)(F)F)nc2n1 (centres undefined) | 52 | 11 | 72 | 3.3 | 64 | 76 | 12.5 (≈ 36 µM) | > 100000 | 300 |  | 
Cc1cc(NC2Cc3cccc(C(F)(F)F)c3C2)n2nc(C(C)(F)F)nc2n1 (centres undefined) | 66 | 30 | 61 | 3.7 | 4.3 | 119 | 6.3 (≈ 15.9 µM) | > 100000 | 280 |  | 
CCN(CC)CCCC(C)Nc1ccnc2cc(Cl)ccc12 (centres undefined) [CHLOROQUINE] |  |  |  |  |  |  |  |  |  |  | AUCED90 [11]: 3.1 µM.hr/day; ED90 [12]: 4.3 mg/kg
COc1ccc2c(c1)CCC(Nc1cc(C)nc3nc(C(C)(F)F)nn13)C2 (centres undefined) | 140 |  |  |  | 17 |  |  | > 100000 | 220 |  | 
Cc1cc(NC2CCc3cc(F)ccc3C2)n2nc(C(C)(F)F)nc2n1 (centres undefined) |  | 14 | 39 | 3.5 |  | 122 | 6.3 (≈ 17.4 µM) | > 100000 |  |  | 
Cc1cc(NC2CCc3ccc(Cl)cc3C2)n2nc(C(F)(F)F)nc2n1 (stereo in doubt; 24) | 15 | 9 |  | 4.1 |  | 24 | 1.6 (≈ 4.19 µM) |  |  | 33 | 
Cc1cc(NC2CCc3ccccc3C2)n2nc(C(F)(F)F)nc2n1 (centres undefined) | 170 |  |  |  | 21 |  |  | > 100000 |  |  | 
Cc1cc(NC2CCc3cc(Br)ccc3C2)n2nc(C(C)(F)F)nc2n1 (stereo in doubt; 12) | 790 | < 7 |  |  |  | 40 |  |  | 2100 | 140 | Kinetic_solubility ([8]; buffer, pH 6.5, 0.5 h): 3.1 µg/mL
Cc1cc(NC2Cc3c(F)ccc(F)c3C2)n2nc(C(C)(F)F)nc2n1 | 65 | 33 | 1013 | 3.2 | 46 | 1500 | 6.3 (≈ 17.2 µM) | > 100000 | 150 |  | 
Cc1cc(NC2CCc3ccc(Cl)cc3C2)n2nc(C(F)(F)F)nc2n1 (stereo in doubt; 25) | 1100 |  |  |  |  |  |  |  |  | 1500 | 
Cc1cc(NC2Cc3c(C)ccc(C)c3C2)n2nc(C(C)(F)F)nc2n1 | 14 | 168 | 178 | 3.8 | 0.39 | 1000 | 6.3 (≈ 17.6 µM) | > 100000 | 24 |  | 
Cc1cc(NC2Cc3ccc(S(=O)(=O)N(C)C)cc3C2)n2nc(C(C)(F)F)nc2n1 (centres undefined) | 8000 |  |  |  |  |  |  |  |  |  | 
COc1ccc2c(c1)CC(Nc1cc(C)nc3nc(C(C)(F)F)nn13)CC2 (stereo in doubt; 17) | 1000 |  |  |  |  |  |  |  |  | 640 | 
Cc1cc(NC2Cc3ccc(S(C)(=O)=O)cc3C2)n2nc(C(C)(F)F)nc2n1 (centres undefined) | 4000 |  |  |  | 6500 |  |  |  |  |  | 
Cc1cc(NC2Cc3cc(F)c(F)cc3C2)n2nc(C(F)(F)F)nc2n1 | 120 |  |  |  | 150 |  |  |  |  |  | 
Cc1cc(NC2Cc3ccccc3C2)n2nc(C(C)(F)F)nc2n1 | 48 | 24 | 245 | 3.1 | 36 | 1004 | 25 (≈ 75.9 µM) | > 100000 |  |  | 
Cc1cc(NC2CCc3ccc(Br)cc3C2)n2nc(C(C)(F)F)nc2n1 (stereo in doubt; 14) | 640 |  |  |  |  |  |  |  |  | 1400 | 
Cc1cc(NC2CCc3cc(C(F)(F)F)c(F)cc3C2)n2nc(C(C)(F)F)nc2n1 (centres undefined) | 87 | < 7 | < 7 | 4.1 | 3300 | < 7 | 1.6 (≈ 3.73 µM) | > 100000 | 820 |  | 
Cc1cc(NC2Cc3cc(Cl)c(Cl)cc3C2)n2nc(C(C)(F)F)nc2n1 | 140 |  |  |  | 580 |  |  |  |  |  | 
